Assay results published in patent publication US20250176547A1, “AGRICULTURE COMPOSITION” (Nippon Kayaku Kabushiki Kaisha, priority 2022, published 2025).

Legend:
Type in all cases: in vivo
kidney bean leaves = assay: Phytotoxicity evaluation of kidney bean leaves after Test Example 2
Protocol: (§1) Kidney bean leaves were cut into squares that measured 2.5 cm on one side, and the cut leaves were placed on absorbent cotton moistened with water. Ten first instar larvae of Thrips palmi were released thereon. 30 mL of the agricultural composition diluted 500 times with water was sprayed on the kidney bean leaves using a hand spray. After air drying, the larvae were kept in a constant temperature chamber at 25° C. One day after the treatment, life and death was observed, and the death rate was calculated. In addition, the state of the kidney bean leaves after the test was observed, and the phytotoxicity was also evaluated.
Evaluation Criteria for Phytotoxicity
• −: No change on the leaf surface • ±: Slight damage is recognized on the leaf surface • +: Damage is recognized on part of the leaf surface • ++: Damage is recognized on the entire surface of the leaf surface

Tetranychus urticae = assay: Biological Test Example 1: test for controlling Tetranychus urticae (leaf spray); conditions: composition diluted 1000 times with water, 30 mL sprayed on kidney bean leaves, 25° C., two days after the treatment
Protocol: Kidney bean leaves were cut into squares that measured 2.5 cm on one side, and the cut leaves were placed on absorbent cotton moistened with water. Ten Tetranychus urticae […] were released thereon. 30 mL of each agricultural composition diluted 1000 times with water was sprayed on the kidney bean leaves by using a hand spray. After air drying, the bean leaves were transferred into a plastic cup and stored in a constant temperature chamber at 25° C. Two days after the treatment, the life and death of the imagoes was observed, and the death rate was calculated.

Thrips palmi = assay: Biological Test Example 2: test for controlling Thrips palmi (leaf spray); conditions: first instar larvae; composition diluted 500 times with water, 30 mL sprayed on kidney bean leaves, 25° C., one day after the treatment
Protocol: as §1

Compound	Test Example 2 Leaf shape phytotoxicity (kidney bean leaves; in vivo)	Test Example 1 Spider mite imagoes (death rate) (Tetranychus urticae)	Test Example 2 Thrip larvae (death rate) (Thrips palmi)	Test Example 2 Leaf shape phytotoxicity (kidney bean leaves; kidney bean leaves after the test, composition diluted 500 times with water)
N,N-dimethyl fatty acid (C8-10) amide [Comparative Example 4]	++			
Propylene glycol monolauric acid ester [Comparative Example 3]		100%	50%	−
Sorbitan monolauric acid ester [Comparative Example 2]	−	0%	20%	
CCCCCCCCCCCCN1CCCC1=O [Comparative Example 8, N-lauryl-2-pyrrolidone]	+++	100%	100%	
N,N-dimethyl fatty acid (C12-14) amide [Comparative Example 6]	+++			
Diglycerin monocaprylic acid ester [Comparative Example 1]	−	60%	20%	
